The values below come from US10428044B2, “3-amino-1,5,6,7-tetrahydro-4H-indol-4-ones” (Bayer Pharma Aktiengesellschaft, priority 2014, dated 2019).

The experiment has as its target (recombinant) catalytic domain of human Bub1 (amino acids 704-1085) (Homo sapiens (Human), UniProt O43683). Put plainly: Bub1 kinase assay (TR-FRET). The format is biochemical. To be noted: ATP 10 μM final, peptide substrate 1 μM final, 60 min at 22° C., read-out: Biological Assay: Bub1 kinase assay median IC50. In short, it runs like this: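 Compounds were serially diluted 1:3.4 from 2 mM DMSO stocks and incubated with the enzyme reaction for 60 min at 22° C. The reaction was stopped with EDTA, and biotinylated peptide phosphorylation was read by TR-FRET using Eu anti-mouse IgG, anti-phosphoserine antibody and streptavidin-XL665. IC50 was fitted by 4-parameter logistic to inhibition normalized to no-inhibitor and no-enzyme controls.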

Chain of (recombinant) catalytic domain of human Bub1 (amino acids 704-1085) (O43683 704-1085): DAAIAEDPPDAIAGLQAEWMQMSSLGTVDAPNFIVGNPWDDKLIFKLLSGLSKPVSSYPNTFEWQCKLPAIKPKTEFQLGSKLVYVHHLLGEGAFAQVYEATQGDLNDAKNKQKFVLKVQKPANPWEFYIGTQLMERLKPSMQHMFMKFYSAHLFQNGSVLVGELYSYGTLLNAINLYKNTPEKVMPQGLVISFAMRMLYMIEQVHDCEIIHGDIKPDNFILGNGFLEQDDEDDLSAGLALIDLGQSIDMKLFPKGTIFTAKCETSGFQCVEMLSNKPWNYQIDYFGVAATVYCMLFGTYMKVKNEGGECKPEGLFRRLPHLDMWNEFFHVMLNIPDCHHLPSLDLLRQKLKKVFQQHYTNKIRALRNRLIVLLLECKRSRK

The term IC50 denotes the concentration that inhibits the measured activity by half. For the compound `CC1(C)CC(=O)c2c([nH]c(-c3ccnc(N)c3)c2Nc2ccccc2)C1` [Example 122, 2-(2-aminopyridin-4-yl)-6,6-dimethyl-3-(phenylamino)-1,5,6,7-tetrahydro-4H-indol-4-one], the IC50 came to 58 nM. To `COc1ccccc1Nc1c(-c2ccncc2)[nH]c2c1C(=O)CC(C)(C)C2` [Example 124, 3-[(2-methoxyphenyl)amino]-6,6-dimethyl-2-(pyridin-4-yl)-1,5,6,7-tetrahydro-4H-indol-4-one] belongs 154 nM; to `CCOc1cc(F)ccc1Nc1c(-c2ccncc2)[nH]c2c1C(=O)CC(C)(C)C2` [Example 125, 3-[(2-ethoxy-4-fluorophenyl)amino]-6,6-dimethyl-2-(pyridin-4-yl)-1,5,6,7-tetrahydro-4H-indol-4-one], 454 nM; to `CC1(C)CC(=O)c2c([nH]c(-c3ccnc(N4CCCC4)c3)c2Nc2ccccc2)C1` [Example 126, 6,6-dimethyl-3-(phenylamino)-2-[2-(pyrrolidin-1-yl)pyridin-4-yl]-1,5,6,7-tetrahydro-4H-indol-4-one], 14500 nM. As to `CC1(C)CC(=O)c2c([nH]c(-c3ccnc(N4CCOCC4)c3)c2Nc2ccccc2)C1` [Example 127, 6,6-dimethyl-2-[2-(morpholin-4-yl)pyridin-4-yl]-3-(phenylamino)-1,5,6,7-tetrahydro-4H-indol-4-one], the IC50 stood at 7750 nM. The value for `CCOc1ccccc1Nc1c(-c2ccncc2)[nH]c2c1C(=O)CC(C)(C)C2` [Example 128, 3-[(2-ethoxyphenyl)amino]-6,6-dimethyl-2-(pyridin-4-yl)-1,5,6,7-tetrahydro-4H-indol-4-one] was 576 nM; that for `CC1(C)CC(=O)c2c([nH]c(-c3ccncc3)c2Nc2ccc(F)c(C(F)(F)F)c2)C1` [Example 129, 3-{[4-fluoro-3-(trifluoromethyl)phenyl]amino}-6,6-dimethyl-2-(pyridin-4-yl)-1,5,6,7-tetrahydro-4H-indol-4-one] was 447 nM. `CC1(C)CC(=O)c2c([nH]c(-c3ccncc3)c2Nc2ccc3ccsc3c2)C1` [Example 130, 3-(1-benzothiophen-6-ylamino)-6,6-dimethyl-2-(pyridin-4-yl)-1,5,6,7-tetrahydro-4H-indol-4-one]: the IC50 came to 58.1 nM. Turning to `Cc1cnccc1-c1[nH]c2c(c1Nc1ccccc1)C(=O)CC(C)(C)C2` [Example 131, 6,6-dimethyl-2-(3-methylpyridin-4-yl)-3-(phenylamino)-1,5,6,7-tetrahydro-4H-indol-4-one], the IC50 stood at 51.8 nM. As to `CC(C)C(=O)Nc1cc(-c2[nH]c3c(c2Nc2ccccc2)C(=O)CC(C)(C)C3)ccn1` [Example 132, N-{4-[6,6-dimethyl-4-oxo-3-(phenylamino)-4,5,6,7-tetrahydro-1H-indol-2-yl]pyridin-2-yl}-2-methylpropanamide], the IC50 worked out at 50.2 nM. To `CC(=O)N(C(C)=O)c1cc(-c2[nH]c3c(c2Nc2ccccc2)C(=O)CC(C)(C)C3)ccn1` [Example 133, N-acetyl-N-{4-[6,6-dimethyl-4-oxo-3-(phenylamino)-4,5,6,7-tetrahydro-1H-indol-2 yl]pyridin-2-yl}acetamide] belongs 49.2 nM; to `O=C1CCCc2[nH]c(-c3ccncc3)c(Nc3ccc(F)c(F)c3)c21` [Example 134, 3-[(3,4-difluorophenyl)amino]-2-(pyridin-4-yl)-1,5,6,7-tetrahydro-4H-indol-4-one], 49.7 nM; to `CC1(C)CC(=O)c2c([nH]c(-c3c(F)cncc3F)c2Nc2ccccc2)C1` [Example 135, 2-(3,5-difluoropyridin-4-yl)-6,6-dimethyl-3-(phenylamino)-1,5,6,7-tetrahydro-4H-indol-4-one], 188 nM. To `O=C1CCCc2[nH]c(-c3c(F)cncc3F)c(Nc3cccc(F)c3)c21` [Example 136, 2-(3,5-difluoropyridin-4-yl)-3-[(3-fluorophenyl)amino]-1,5,6,7-tetrahydro-4H-indol-4-one] belongs 924 nM. The value for `Nc1cc(-c2[nH]c3c(c2Nc2cccc(F)c2)C(=O)CCC3)ccn1` [Example 138, 2-(2-aminopyridin-4-yl)-3-[(3-fluorophenyl)amino]-1,5,6,7-tetrahydro-4H-indol-4-one] was 92.4 nM; that for `Nc1cc(-c2[nH]c3c(c2Nc2ccccc2)C(=O)CCC3)ccn1` [Example 139, 2-(2-aminopyridin-4-yl)-3-(phenylamino)-1,5,6,7-tetrahydro-4H-indol-4-one] was 113 nM. For `O=C1CCCc2[nH]c(-c3ccncc3Cl)c(Nc3ccc(F)cc3)c21` [Example 142, 2-(3-chloropyridin-4-yl)-3-[(4-fluorophenyl)amino]-1,5,6,7-tetrahydro-4H-indol-4-one], the concentration for half-maximal inhibition (IC50) is 68.5 nM. With `Cc1cc(-c2[nH]c3c(c2Nc2ccccc2)C(=O)CCC3)ccn1` [Example 143, 2-(2-methylpyridin-4-yl)-3-(phenylamino)-1,5,6,7-tetrahydro-4H-indol-4-one], the IC50 turned out to be 558 nM.

For the compound `CCNC(=O)c1cccc(Nc2c(-c3ccncc3)[nH]c3c2C(=O)CC(C)(C)C3)c1` [Example 144, 3-{[6,6-dimethyl-4-oxo-2-(pyridin-4-yl)-4,5,6,7-tetrahydro-1H-indol-3-yl]amino}-N-ethylbenzamide], the concentration for half-maximal inhibition (IC50) turned out to be 1720 nM. To `CNc1cc(-c2[nH]c3c(c2Nc2ccccc2)C(=O)CC(C)(C)C3)ccn1` [Example 145, 6,6-dimethyl-2-[2-(methylamino)pyridin-4-yl]-3-(phenylamino)-1,5,6,7-tetrahydro-4H-indol-4-one] belongs 148 nM; to `CC1(C)CC(=O)c2c([nH]c(-c3ccncc3)c2Nc2ccccc2C#N)C1` [Example 146, 2-{[6,6-dimethyl-4-oxo-2-(pyridin-4-yl)-4,5,6,7-tetrahydro-1H-indol-3-yl]amino}benzonitrile], 48.2 nM; to `CC1(C)CC(=O)c2c([nH]c(-c3ccncc3)c2Nc2ccc(F)c(C#N)c2)C1` [Example 147, 5-{[6,6-dimethyl-4-oxo-2-(pyridin-4-yl)-4,5,6,7-tetrahydro-1H-indol-3-yl]amino}-2-fluorobenzonitrile], 258 nM.

Regarding `CC1(C)CC(=O)c2c([nH]c(-c3ccncc3)c2Nc2ccc(F)c(OC(F)(F)F)c2)C1` [Example 148, 3-{[4-fluoro-3-(trifluoromethoxy)phenyl]amino}-6,6-dimethyl-2-(pyridin-4-yl)-1,5,6,7-tetrahydro-4H-indol-4-one], the IC50 is 479 nM. The value for `Cc1cc(-c2[nH]c3c(c2Nc2ccccc2)C(=O)CC(C)(C)C3)ccn1` [Example 149, 6,6-dimethyl-2-(2-methylpyridin-4-yl)-3-(phenylamino)-1,5,6,7-tetrahydro-4H-indol-4-one] was 94.1 nM; that for `COc1cc(-c2[nH]c3c(c2Nc2ccccc2)C(=O)CCC3)ccn1` [Example 150, 2-(2-methoxypyridin-4-yl)-3-(phenylamino)-1,5,6,7-tetrahydro-4H-indol-4-one] was 1890 nM.

For `O=C1CCCc2[nH]c(-c3ccnc(Br)c3)c(Nc3ccccc3)c21` [Example 152, 2-(2-bromopyridin-4-yl)-3-(phenylamino)-1,5,6,7-tetrahydro-4H-indol-4-one], the IC50 amounted to 239 nM.

`CC1(C)CC(=O)c2c([nH]c(-c3ccncc3)c2Nc2cccc(C3(C)OCCO3)c2)C1` [Example 153, 6,6-dimethyl-3-{[3-(2-methyl-1,3-dioxolan-2-yl)phenyl]amino}-2-(pyridin-4-yl)-1,5,6,7-tetrahydro-4H-indol-4-one]: the IC50 amounted to 11500 nM.

As for `CCC(O)c1cccc(Nc2c(-c3ccncc3)[nH]c3c2C(=O)CC(C)(C)C3)c1` (centres unmarked) [Example 154, 3-{[3-(1-hydroxypropyl)phenyl]amino}-6,6-dimethyl-2-(pyridin-4-yl)-1,5,6,7-tetrahydro-4H-indol-4-one], the IC50 worked out at 3000 nM. The value for `CC1(C)CC(=O)c2c([nH]c(-c3ccncc3)c2Nc2cccc(C(O)C(F)(F)F)c2)C1` (centres unmarked) [Example 155, 6,6-dimethyl-2-(pyridin-4-yl)-3-{[3-(2,2,2-trifluoro-1-hydroxyethyl)phenyl]amino}-1,5,6,7-tetrahydro-4H-indol-4-one] was 1710 nM; that for `COC(C)c1cccc(Nc2c(-c3ccncc3)[nH]c3c2C(=O)CC(C)(C)C3)c1` (centres unmarked) [Example 156, 3-{[3-(1-methoxyethyl)phenyl]amino}-6,6-dimethyl-2-(pyridin-4-yl)-1,5,6,7-tetrahydro-4H-indol-4-one] was 743 nM. The value for `CC1(C)CC(=O)c2c([nH]c(-c3ccncc3)c2Nc2cccc3ccccc23)C1` [Example 157, 6,6-dimethyl-3-(naphthalen-1-ylamino)-2-(pyridin-4-yl)-1,5,6,7-tetrahydro-4H-indol-4-one] was 764 nM. For `CC1(C)CC(=O)c2c([nH]c(-c3ccncc3)c2Nc2ccc3ccccc3c2)C1` [Example 158, 6,6-dimethyl-3-(naphthalen-2-ylamino)-2-(pyridin-4-yl)-1,5,6,7-tetrahydro-4H-indol-4-one], the IC50 is 95.6 nM. To `CC1(C)CC(=O)c2c([nH]c(-c3ccncc3)c2Nc2ccccc2Oc2ccccc2)C1` [Example 159, 6,6-dimethyl-3-[(2-phenoxyphenyl)amino]-2-(pyridin-4-yl)-1,5,6,7-tetrahydro-4H-indol-4-one] belongs 1060 nM; to `CC1(C)CC(=O)c2c([nH]c(-c3ccncc3)c2Nc2ccccc2-c2ccccc2)C1` [Example 160, 3-(biphenyl-2-ylamino)-6,6-dimethyl-2-(pyridin-4-yl)-1,5,6,7-tetrahydro-4H-indol-4-one], 204 nM; to `O=C1CCCc2[nH]c(-c3ccnc(N(C(=O)C4CC4)C(=O)C4CC4)c3)c(Nc3cccc(F)c3)c21` [Example 162, N-(cyclopropylcarbonyl)-N-(4-{3-[(3-fluorophenyl)amino]-4-oxo-4,5,6,7-tetrahydro-1H-indol-2-yl}pyridin-2-yl)cyclopropanecarboxamide], 85.6 nM.
